Test results reported in patent US12029748B2, “Synergistic composition for maintenance of healthy balance of microflora” (KIMBERLY-CLARK WORLDWIDE, INC., priority 2017, dated 2024).

Key:
L. crispatus and E. coli = test: Therapeutic Effect Protocol: L. crispatus / E. coli co-culture, ratio after 36 hours; assay type: cell-based, Lactobacillus crispatus; E. coli; conditions: for Therapeutic Efficacy Results (Lactobacillus/E. coli) 0.10%: nitrogen compound 0.10 wt/vol % with 1.0 wt/vol % α methyl-D glucoside (10:1); for Therapeutic Efficacy Results (Lactobacillus/E. coli) 0.10% / Therapeutic Efficacy Results (Lactobacillus/E. coli) 0.50% / Therapeutic Efficacy Results (Lactobacillus/E. coli) 1.00%: 36 hours anaerobic co-culture, 37° C.; for Therapeutic Efficacy Results (Lactobacillus/E. coli) 0.50%: nitrogen compound 0.50 wt/vol % with 1.0 wt/vol % α methyl-D glucoside (2:1); for Therapeutic effect when ratio α methyl-D glucoside : nitrogen compound is at least about 2:1, but not at 1:1 / Therapeutic effect at ratio 2:1 and 10:1, but not at 1:1 / Therapeutic effect (ratio of Lactobacillus to E. coli greater than 2) at each concentration tested / Therapeutic effect when ratio α methyl-D glucoside : nitrogen compound is less than 2:1 (1:1): with α methyl-D glucoside; for Therapeutic effect when ratio α methyl-D glucoside : nitrogen compound is at least about 2:1, but not at 1:1: ratio at least about 2:1, not 1:1; for Therapeutic effect at ratio 2:1 and 10:1, but not at 1:1: ratios 2:1 and 10:1, not 1:1; for Therapeutic Efficacy Results (Lactobacillus/E. coli) 1.00%: nitrogen compound 1.00 wt/vol % with 1.0 wt/vol % α methyl-D glucoside (1:1); for Therapeutic effect (ratio of Lactobacillus to E. coli greater than 2) at each concentration tested: nitrogen compound 1 wt/vol %, 0.5 wt/vol % and 0.1 wt/vol %; for Therapeutic effect when ratio α methyl-D glucoside : nitrogen compound is less than 2:1 (1:1): ratio 1:1
Method: As used herein the term “therapeutic effect” refers to the ability of the compositions and formulations of the present invention to stimulate the growth of Lactobacillus relative E. coli measured according to the Therapeutic Effect Protocol described below. Generally, therapeutic effect is expressed as a ratio of Lactobacillus to E. coli and is desirably greater than about 2, more preferably greater than about 20 and more desirably greater than about 100.
The data in Table 1 was tested according to the Therapeutic Effect Protocol as described further herein. The nitrogen compounds were tested for their therapeutic efficacy at three different concentrations when combined with α methyl-D glucoside (1% wt/vol %). The concentrations of the nitrogen containing compounds that were tested were 1% wt/vol %, 0.5% wt/vol %, and 0.1% wt/vol %.
Colonies of L. crispatus and E. coli were prepared as follows. A colony of L. crispatus was transferred to 7 ml de Man, Rogosa & Sharpe (MRS) broth and incubated anaerobically (using BD GasPak EZ anaerobe container system with indicator) at 37° C. without shaking for 18-20 hours. A colony of E. coli was transferred to 5 ml Tryptic Soy Broth (TSB) and incubated aerobically (shaking at 100 rpm) at 37° C. for 18-20 hours.
Colonies were then inoculated as follows. Bacterial cultures were gently vortexed and 1 mL of each culture was transferred to a corresponding 2.0 mL micro-centrifuge tube and then centrifuged for two minutes at 14,500 rpm. The cultural supernatant was removed and the cell pellet was re-suspended in 1 mL of 0.95% (wt/vol %) saline. […] For L. crispatus, the pellet was re-suspended in 1 mL of 0.95% saline to achieve ˜10^7-10^8 cfu/mL. For E. coli, the pellet was re-suspended in 1 mL of 0.95% saline to achieve ˜10^8-10^9 cfu/mL.
Media were prepared as follows.
(§1) All of the ingredients in Table 2 were combined and the pH was adjusted to 6.5. […] To evaluate the effect of various nitrogen containing therapeutic agents on the growth of bacteria, the LAPT-g media, prepared as described above, was supplemented with various nitrogen containing compound therapeutic agents to a final test concentration between 0.1 and 1.0%. As initial screening measures, solubility and initial pH of each composition were checked. If a specific composition was insoluble (as detected by visual indication of precipitates or turbidity), then no further therapeutic efficacy testing was undertaken on that composition. Additionally, if the initial pH of the composition was below 5.5 (“Low”) or was above 6.5 (“High”), then no further therapeutic efficacy testing was undertaken on that composition.
Five milliliters (5 mL) of each medium was transferred to a test tube in duplicates for subsequent inoculation. A master mixture of L. crispatus and E. coli, prepared as described above, was prepared in 1,000:1 ratio. Each (5 ml) test tube was inoculated with the master mixture to give 10^5-10^6 total CFU L. crispatus and 100-1,000 total CFU E. coli per tube.
To establish a negative control, one tube was vortexed and 100 μL was removed to determine the initial cell concentrations by serial dilutions and plating (2 plates per dilution). L. crispatus is selected on MRS agar plates incubated anaerobically at 37° C. for two days. E. coli is selected on TSA plates incubated aerobically at 37° C. for one day. The co-cultures were incubated in an anaerobic container with BD GasPaks at 37° C. for 36 hours.
The effect of the α methyl-D glucoside and the nitrogen containing compound therapeutic agents on the ratio of L. crispatus to E. coli was measured 36 hours after inoculation and a final pH of the test solutions was recorded. The co-culture tube was vortexed and 100 μL was removed to determine the final cell concentrations by serial dilutions and plating (2 plates per dilution). L. crispatus is selected on MRS agar plates incubated anaerobically at 37° C. for two days.

[1] = Initial pH screening of the composition; assay type: physicochemical; conditions: for I pH (initial pH), 0.10%: nitrogen compound 0.10 wt/vol % with 1.0 wt/vol % α methyl-D glucoside in medium; for I pH (initial pH), 0.50%: nitrogen compound 0.50 wt/vol % with 1.0 wt/vol % α methyl-D glucoside in medium; for I pH (initial pH), 1.00%: nitrogen compound 1.00 wt/vol % with 1.0 wt/vol % α methyl-D glucoside in medium
Text: Each composition in Table 1 went through initial screening measures of solubility and initial pH (“I pH”). […] When a specific concentration of a nitrogen containing compound was insoluble, the initial and final pH (“F pH”) of the combined composition was not measured and accordingly are each marked as “NM.” Additionally, initial pH of the composition was checked as a screening measure. The initial pH was marked as either Low (“L”), High (“H”), or Pass (“P”). A Low initial pH corresponds to an initial pH being less than 5.5, a High initial pH corresponds to an initial pH being greater than 6.5, and a Pass initial pH corresponds to the pH being at or between 5.5-6.5. […] As part of the Therapeutic Effect Protocol, a final pH was also measured after the compositions that were tested against the Lactobacillus and E. coli.
as §1

Row | Structure (SMILES) | Therapeutic Efficacy Results (Lactobacillus/E. coli) 0.10% (L. crispatus and E. coli) | Therapeutic Efficacy Results (Lactobacillus/E. coli) 0.50% (L. crispatus and E. coli) | Therapeutic effect when ratio α methyl-D glucoside : nitrogen compound is at least about 2:1, but not at 1:1 (L. crispatus and E. coli) | Therapeutic effect at ratio 2:1 and 10:1, but not at 1:1 (L. crispatus and E. coli) | I pH (initial pH), 0.10% [1] | I pH (initial pH), 0.50% [1] | I pH (initial pH), 1.00% [1] | Therapeutic Efficacy Results (Lactobacillus/E. coli) 1.00% (L. crispatus and E. coli) | Therapeutic effect (ratio of Lactobacillus to E. coli greater than 2) at each concentration tested (L. crispatus and E. coli) | Therapeutic effect when ratio α methyl-D glucoside : nitrogen compound is less than 2:1 (1:1) (L. crispatus and E. coli)
1 | O=C1NC(=O)C(=O)C(=O)N1 [Alloxan] | 4.83 | 1.45E+04 | provided a therapeutic effect | provided a therapeutic effect | P (a Pass initial pH corresponds to the pH being at or between 5.5-6.5) | P (a Pass initial pH corresponds to the pH being at or between 5.5-6.5) | L (A Low initial pH corresponds to an initial pH being less than 5.5) | – | – | –
2 | C[C@@H](N)C(=O)O [D-Alanine] | 1.10E+06 | >1.30E+04 | – | – | P (a Pass initial pH corresponds to the pH being at or between 5.5-6.5) | P (a Pass initial pH corresponds to the pH being at or between 5.5-6.5) | P (a Pass initial pH corresponds to the pH being at or between 5.5-6.5) | 60 | provided a therapeutic effect | provided a therapeutic effect
3 | NC(=O)C[C@@H](N)C(=O)O [D-Asparagine] | >3410 | 6.00E+06 | – | – | P (a Pass initial pH corresponds to the pH being at or between 5.5-6.5) | P (a Pass initial pH corresponds to the pH being at or between 5.5-6.5) | P (a Pass initial pH corresponds to the pH being at or between 5.5-6.5) | 72 | provided a therapeutic effect | provided a therapeutic effect
4 | Cl.N[C@H]1C(O)O[C@H](CO)[C@H](O)[C@@H]1O (stereo partly drawn) [D-Galactosamine HCL] | 6.72 | >1220 | provided a therapeutic effect | provided a therapeutic effect | P (a Pass initial pH corresponds to the pH being at or between 5.5-6.5) | P (a Pass initial pH corresponds to the pH being at or between 5.5-6.5) | P (a Pass initial pH corresponds to the pH being at or between 5.5-6.5) | 1.29 | – | –
5 | Cl.N[C@H]1C(O)O[C@H](CO)[C@@H](O)[C@@H]1O (stereo partly drawn) [D-Glucosamine HCL] | 77.8 | 6.00E+06 | – | – | P (a Pass initial pH corresponds to the pH being at or between 5.5-6.5) | P (a Pass initial pH corresponds to the pH being at or between 5.5-6.5) | P (a Pass initial pH corresponds to the pH being at or between 5.5-6.5) | 454 | provided a therapeutic effect | provided a therapeutic effect
6 | NC(=O)[C@H]1O[C@@H](O)[C@H](O)[C@@H](O)[C@@H]1O [D-glucoronamide] | >122 | 6.84E+03 | provided a therapeutic effect | provided a therapeutic effect | P (a Pass initial pH corresponds to the pH being at or between 5.5-6.5) | P (a Pass initial pH corresponds to the pH being at or between 5.5-6.5) | P (a Pass initial pH corresponds to the pH being at or between 5.5-6.5) | 1.6 | – | –
7 | Cl.N[C@@H]1C(O)O[C@H](CO)[C@@H](O)[C@@H]1O (stereo partly drawn) [D-mannosamine HCl] | 0.202 | 84 | provided a therapeutic effect | – | P (a Pass initial pH corresponds to the pH being at or between 5.5-6.5) | P (a Pass initial pH corresponds to the pH being at or between 5.5-6.5) | P (a Pass initial pH corresponds to the pH being at or between 5.5-6.5) | 0.96 | – | –
8 | CC(O)C(N)=O (stereo not drawn) [DL Lactamide] | 7.52 | >1330 | provided a therapeutic effect | provided a therapeutic effect | P (a Pass initial pH corresponds to the pH being at or between 5.5-6.5) | P (a Pass initial pH corresponds to the pH being at or between 5.5-6.5) | P (a Pass initial pH corresponds to the pH being at or between 5.5-6.5) | 0.8 | – | –
